Assay results from patent US20080175935A1, “Method to Treat Skin Conditions with Narcissus Tazetta Bulb Extract” (NuSkin International, Inc., priority 2004, published 2008).
Entries after “also recorded” stand apart in the source; their conditions may differ. Values belong to the molecule of their own block, whether it stands above or below them.

Experiments:
arNOX [1] = assay: arNOX assay: ferricytochrome c reduction (superoxide production) in sera; assay type: biochemical, human; conditions: for serum activity (cytochrome c reduction) in response to added reagent: sera of aged individuals; for oscillating activity in sera of aged individuals: FIG. 2G (SOD), FIG. 2H (coenzyme Q); for amount at which inhibition of age-related cytochrome c reduction reaches a plateau: sera; for further inhibition of ferric cytochrome c reduction when added after maximal inhibition by the other agent: serum, SOD 30 units and coenzyme Q 450 μg added sequentially, 300 sec; for inhibition of ferric cytochrome c reduction activity: untreated serum samples; for Inhibition by superoxide dismutase: sera from aged individuals; for Superoxide production (reduction of ferricytochrome c), with superoxide dismutase: sera of aged (80-98 y) individuals, n = 10
Text: (§1) Reduction of ferric cytochrome c by superoxide was employed as a standard measure of superoxide formation (Mayo, L. A. and Cumutte, J. (1990) Meth. Enzyme. 186, 567-575. 7. Butler, J, Koppenol, W. H. and Margollash, E. (1982) J. Biol. Chem. 257, 10747).
Assays of ferric cytochrome c reduction in sera compared 53 samples from young (20 to 40 y) and 65 samples from aged (80 to 100) individuals. […]
(§2) Measurement of arNOX activity based on ferricytochrome c reduction as a measure of superoxide production were taken. The rate of reduction of ferricytochrome c was determined from the increase in absorbance at 550 nm with 540 nm as reference. This is a widely accepted method when coupled to superoxide dismutase inhibition for the measurement of superoxide generation. The assay consists of 150 μl (2 mg/ml) of oxidized ferricytochrome c solution and 150 μl serum or 40 μl buffy coats in PBSG buffer (8.06 g NaCl, 0.2 g KCl, 0.18 g Na2HPO4, 0.26 g KH2PO4, 0.13 g CaCl2, 0.1 g MgCl2, 1.35 g glucose dissolved in 1000 ml deionized water, adjusted to pH 7.4, filtered and stored at 4° C.). Rates were determined using a SLM Aminco DW-2000 spectrophotometer (Milton Roy, Rochester, N.Y., USA) in the dual wave length mode of operation with continuous measurements over 1 min every 1.5 min. After 45 min, test compound was added and the reaction was continued for 45 min. A millimolar extinction coefficient of 19.1 cm^−1 was used for reduced ferricytochrome c. (D. M. Morré, F. Guo and D. J. Morré, 2003, Mol. Cell. Biochem. 254: […]).

arNOX [2] = assay: arNOX assay: ferricytochrome c reduction (superoxide production) by buffy coats; assay type: cell-based, human; conditions: for arNOX inhibition, activity at a dilution of 1:50: dilution 1:50 (solids 2 mM), buffy coats from a person; for arNOX inhibition, activity at a dilution of 1:500: dilution 1:500; for arNOX inhibition, activity at a dilution of 1:500 / Rate of reduction of ferricytochrome c, +100 μM Q10: buffy coats; for oscillating activity of buffy coats and sera of aged individuals: FIG. 2, SOD 60 units or coenzyme Q 450 μg added after 45 min, 70-100 y; for Rate of reduction of ferricytochrome c, +100 μM Q10: mean ± SD, negative rates statistically zero
Protocol: as §1, with “10747). If superoxide dismutase was added to remove the superoxide as it was generated, the reduction of ferric cytochrome c was prevented to confirm that ferric cytochrome c reduction in the assay was due to superoxide.” for “10747).”
Buffy coats were pooled from aged individuals (70-100 y) and the reduction of ferric cytochrome c was observed (FIG. 2) with an oscillating activity. […] This oscillatory reduction of cytochrome c was absent from buffy coat fractions from younger (20-40 y) individuals (FIGS. 2A and 2B). […] The rate of coenzyme Q inhibited ferric cytochrome c reduction was 7-fold greater in buffy coat fractions of 90-94 y individuals as compared to 80-89 y individuals (Table 1). Buffy coats of less than 65 y individuals lacked the activity.
The compounds listed above in Table 4 were tested initially in the standard arNOX assay at a dilution of 1:50. Solids were prepared in water at an initial concentration of approximately 100 mM and then also tested at a dilution of 1:50, i.e., 2 mM. All compounds were evaluated using human buffy coats prepared from a person. Several compounds were evaluated with sera from aged patients as follow: IBR-DORMIN® Narcissus tazetta bulb extract (person), IBR-TOM® aqueous serum of tomato, available from Israeli Biotechnology Research Ltd. Corporation, Tel Aviv, Israel, (person), L-carnosine (person, person), L-ERGO® synthetically derived 1-ergothioneine, available from OXIS Health Products, Inc., Portland, Oreg. (person). Serum and buffy coats gave consistent results. Compounds active at 1:50 dilutions were reassayed with buffy coats at a dilution of 1:500 and compounds active at 1:500 were reassayed with buffy coats at a dilution of 1:5000.
Details of the assay protocol are as follow. Buffy coats, a mixture of lymphocytes and platelets, were obtained from a commercial supplier. The blood samples were maintained at 4° C. prior to collection and assay. Ca. 10^7 cells were added to each assay. Cell numbers were determined using a hemocytometer.
as §2

[3] = system: NADH cytochrome c reductase; assay: NADH cytochrome c reductase of pig liver microsomes; assay type: biochemical
Text: (§3) However, the NADH-stimulated activity was about 4 nmoles/min/ml of sera for sera of both young and aged individuals. The aging-specific increment of ca. 2 nmoles/min/mg protein was observed both in the presence or absence of NADH.

[4] = system: NADH cytochrome c reductase; assay: NADH-cytochrome c reductase activity in serum; assay type: biochemical, human; conditions: serum of either young or aged individuals
Text: as §3

Molecule: N[C@@H](CCC(=O)N[C@@H](CS)C(=O)NCC(=O)O)C(=O)O [GSH]
serum activity (cytochrome c reduction) in response to added reagent (arNOX [1]): neither stimulates nor inhibits

Molecule: C[N+](C)(C)[C@@H](Cc1c[nH]c(=S)[nH]1)C(=O)[O-] [L-Ergothioneine]
arNOX inhibition, activity at a dilution of 1:50 (arNOX [2]): mixed results | arNOX inhibition, activity at a dilution of 1:500 (arNOX [2]): inactive

Molecule: NCCC(=O)N[C@@H](Cc1cnc[nH]1)C(=O)O [L-carnosine, L-Carnosine]
effect on the arNOX activities of a serum sample (arNOX [1]; one experiment, serum sample containing 3 arNOX activities): inhibited one arNOX, stimulated a second arNOX and was without effect on a third

Molecule: Cc1cc(-c2ccccc2)c2ccc3c(-c4ccccc4)cc(C)nc3c2n1 [bathocuproene]
serum activity (cytochrome c reduction) in response to added reagent (arNOX [1]): unaffected

Molecule: Cc1cc(-c2ccc(S(=O)(=O)O)cc2)c2ccc3c(-c4ccc(S(=O)(=O)O)cc4)cc(C)nc3c2n1 [bathocuproenedisulforiate]
serum activity (cytochrome c reduction) in response to added reagent (arNOX [1]): unaffected

Molecule: COc1cc(CNC(=O)CCCC/C=C/C(C)C)ccc1O [capsaicin]
response of arNOX to the drug (arNOX [1]): does not respond

EC50 (arNOX [2]; buffy coats pooled from aged individuals (70-100 y), read-out: EC50 for inhibition of oscillating reduction of ferric cytochrome c): 20 µM | activity of authentic NADH cytochrome c reductase of pig liver microsomes [3]: did not significantly inhibit | activity of NADH cytochrome c reductase in serum [4]: Neither SOD nor coenzyme Q inhibited
Molecule: COC1=C(OC)C(=O)C(C/C=C(\C)CC/C=C(\C)CC/C=C(\C)CC/C=C(\C)CC/C=C(\C)CC/C=C(\C)CC/C=C(\C)CC/C=C(\C)CC/C=C(\C)CCC=C(C)C)=C(C)C1=O [coenzyme Q, ubiquinone-10]
oscillating activity in sera of aged individuals (arNOX [1]): eliminated; also recorded: largely blocked | amount at which inhibition of age-related cytochrome c reduction reaches a plateau (arNOX [1]; FIG. 4): about 450 μg | further inhibition of ferric cytochrome c reduction when added after maximal inhibition by the other agent (arNOX [1]): no further inhibition | inhibition of ferric cytochrome c reduction activity (arNOX [1]; 300 μg/ml): 40% | oscillating activity of buffy coats and sera of aged individuals (arNOX [2]): reduced to basal levels | oscillating reduction of ferric cytochrome c (arNOX [2]; buffy coats pooled from aged individuals (70-100 y), 100 μM coenzyme Q (FIG. 2D)): inhibited completely | Rate of reduction of ferricytochrome c, +100 μM Q10 (arNOX [2]; group 80-89 years): −0.03 ± 0.02 nmoles min^−1 10^7 cells^−1 | Rate of reduction of ferricytochrome c, +100 μM Q10 (arNOX [2]; group 90-94 years): −0.07 ± 0.07 nmoles min^−1 10^7 cells^−1

Molecule: [Cu] [copper]
serum activity (cytochrome c reduction) in response to added reagent (arNOX [1]): did not enhance the activity

Molecule: OO [hydrogen peroxide]
serum activity after oxidation of protein SH (arNOX [1]; dilute (0.01%) hydrogen peroxide followed by catalase): inactive

Molecule: COC(=O)c1ccc(O)cc1 [methylparaben, Methylparaben]
effect on the two distinct arNOX activities of the buffy coats (arNOX [2]; buffy coats containing two distinct arNOX activities): inhibited one and had no effect on the other | arNOX inhibition, activity at a dilution of 1:50 (arNOX [2]): active | arNOX inhibition, activity at a dilution of 1:500 (arNOX [2]): inactive

Molecule: O=C(O)c1cc[c]([Hg][Cl])cc1 [p-chloromercuribenzoate]
serum activity (cytochrome c reduction) in response to added reagent (arNOX [1]): inhibited

Molecule: CCCOC(=O)c1ccc(O)cc1 [propylparaben, Propylparaben]
arNOX inhibition, activity at a dilution of 1:50 (arNOX [2]): active | arNOX inhibition, activity at a dilution of 1:500 (arNOX [2]): inactive

Molecule: (−)-epigallocatechin gallate
response of arNOX to the drug (arNOX [1]): does not respond

Molecule: Catalase
serum activity (cytochrome c reduction) in response to added reagent (arNOX [1]): without effect

Inhibition by superoxide dismutase (arNOX [1]; before proteinase K digestion): 40% | Inhibition by superoxide dismutase (arNOX [1]; following proteinase K digestion): 60% | Superoxide production (reduction of ferricytochrome c), with superoxide dismutase (arNOX [1]; after proteinase K): 0.22 ± 0.1 Nmoles/min/mi/sera | Superoxide production (reduction of ferricytochrome c), with superoxide dismutase (arNOX [1]; no proteinase K): 0.42 ± 0.1 Nmoles/min/mi/sera | activity of NADH cytochrome c reductase in serum [4]: Neither SOD nor coenzyme Q inhibited
Molecule: superoxide dismutase
oscillating activity in sera of aged individuals (arNOX [1]; listed as SOD): eliminated; also recorded: completely inhibited | amount at which inhibition of age-related cytochrome c reduction reaches a plateau (arNOX [1]; FIG. 3): 45 units | further inhibition of ferric cytochrome c reduction when added after maximal inhibition by the other agent (arNOX [1]): no further inhibition | inhibition of ferric cytochrome c reduction activity (arNOX [1]; 30 units/ml): 40±10% | oscillating activity of buffy coats and sera of aged individuals (arNOX [2]): reduced to basal levels | oscillating reduction of ferric cytochrome c (arNOX [2]; buffy coats pooled from aged individuals (70-100 y), SOD added (FIG. 2C)): inhibited completely
